The values below come from paper PMC5084024, “The Identification of Biochanin A as a Potent and Selective β-Site App-Cleaving Enzyme 1 (Bace1) Inhibitor” (Nutrients, 2016).

What is called IC50 is the concentration needed to halve the response being measured.

For this assay, the target named is T1, BACE1 (β-site APP-cleaving enzyme 1) (Homo sapiens, UniProt P56817).
T1 construct: human recombinant BACE1, baculovirus-expressed
Kind of assay: FRET enzyme assay with recombinant BACE1; Dixon and Lineweaver-Burk kinetics (Ki […]). In kind it is biochemical.

T1 sequence (P56817 46-457): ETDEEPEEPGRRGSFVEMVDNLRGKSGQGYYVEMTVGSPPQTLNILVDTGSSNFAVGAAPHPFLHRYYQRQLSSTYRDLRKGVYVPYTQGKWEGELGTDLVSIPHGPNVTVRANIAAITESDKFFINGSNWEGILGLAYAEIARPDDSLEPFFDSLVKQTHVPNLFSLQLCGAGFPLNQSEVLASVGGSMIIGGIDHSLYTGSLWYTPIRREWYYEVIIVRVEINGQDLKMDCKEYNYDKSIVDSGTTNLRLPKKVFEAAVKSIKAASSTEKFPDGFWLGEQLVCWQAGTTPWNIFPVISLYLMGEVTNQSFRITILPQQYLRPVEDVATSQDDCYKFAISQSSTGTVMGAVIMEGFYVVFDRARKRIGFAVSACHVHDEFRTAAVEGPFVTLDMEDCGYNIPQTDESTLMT

On to `COc1ccc(-c2coc3cc(O)cc(O)c3c2=O)cc1` [Biochanin A, 5,7-dihydroxy-3-(4-methoxyphenyl)chromen-4-one], for which the IC50 amounted to 28 µM.
